Literature values, collected in patent US20210154335A1, “DYE AGGREGATES-CONTAINING NANOPARTICLES AND USES THEREOF” (BOARD OF REGENTS, THE UNIVERSITY OF TEXAS SYSTEM, priority 2019, published 2021).

Settings: in vivo

blood circulation half-life: 2 to 4 min
Structure (SMILES): CC1(C)C(/C=C/C=C/C=C/C=C2\N(CCCCS(=O)(=O)O)c3ccc4ccccc4c3C2(C)C)=[N+](CCCCS(=O)(=O)[O-])c2ccc3ccccc3c21 [ICG, indocyanine green]
